Reference: ChEMBL document CHEMBL3585340, “Potent Apoptotic Response Induced by Chloroacetamidine Anthrathiophenediones in Bladder Cancer Cells” (J Med Chem, 2015)
Calls of active or inactive are those of the source. The calls are words filed in the database; no cut-off is given here.

Assays:
[1] = Cellular uptake in human T24 cells at 1 to 5 uM after 4 hrs by FACS analysis; format: ADME, cell-based; conditions: t-24, 4 h
[2] = Cell cycle arrest in human T24 cells assessed as accumulation at G2 phase at 5 uM after 48 to 72 hrs by propidium iodide staining-based FACS analysis; format: functional; conditions: T-24
T-24 [3] = test: Induction of apoptosis in human T24 cells assessed as PARP-1 cleavage at 2.5 uM measured at 48 hrs by Western blot analysis relative to control; format: functional
T-24 [4] = test: Induction of apoptosis in human T24 cells at 2.5 uM after 24 hrs by annexin V-FITC/propidium iodide staining-based FACS analysis (13 +/- 5%); format: functional
[5] = Downregulation of p21RAS protein level in human T24 cells at 5 uM after 48 hrs by Western blot analysis; format: functional, cell-based; conditions: T-24
HEK293 = test: Cytotoxicity against HEK293 cells harboring wild type HRAS assessed as reduction of metabolic activity after 72 hrs by resazurin assay; format: cell-based; conditions: Homo sapiens, HEK293, 72 h
T-24 [6] = test: Cytotoxicity against human T24 cells assessed as reduction of colony formation at 1 uM after 7 days by methylene blue staining-based assay; format: functional, cell-based
T-24 [7] = test: Inhibition of HRAS mRNA expression in human T24 cells at 5 uM after 6 to 24 hrs by RT-qPCR analysis; format: functional, cell-based
[8] = Cytotoxicity against human T24 cells harboring HRAS mutant assessed as reduction of metabolic activity after 72 hrs by resazurin assay; format: functional, cell-based; conditions: T-24, 72 h
[9] = Cellular uptake in cytoplasm of human T24 cells at 5 uM after 4 hrs by confocal microscopic analysis; format: ADME, cell-based; conditions: t-24, 4 h
[10] = Binding affinity to 5' FAM/3' TAMRA labeled HRAS1 G-quadruplex DNA (unknown origin) by FRET analysis
[11] = Binding affinity to 5' FAM/3' TAMRA labeled HRAS2 G-quadruplex DNA (unknown origin) assessed as change in melting temperature by FRET analysis
T-24 [12] = test: Binding affinity to mutant HRAS Mut-A plasmid (unknown origin) transfected in human T24 cells at 100 to 200 nM pretreated with cells followed by transfection measured after 48 hrs by dual luciferase reporter gene assay; format: cell-based
T-24 [13] = test: Binding affinity to wild type HRAS G-quadruplex DNA (unknown origin) transfected in human T24 cells assessed as remaining expression ratio of firefly luciferase to renila luciferase reporter gene at 100 to 200 nM pretreated with cells followed by transfection measured after 48 hrs; format: cell-based
T-24 [14] = test: Induction of reactive oxygen species generation in human T24 cells at 1 to 5 uM after 24 hrs relative to control; format: functional, cell-based
[15] = Cellular uptake in human T24 cells at 5 uM at 4 degC after 4 hrs by FACS analysis; format: ADME, cell-based; conditions: t-24, 4 h
[16] = Cellular uptake in human T24 cells at 5 uM after 4 hrs by FACS analysis relative to HEK293 cells; format: ADME, cell-based; conditions: hek293, 4 h
[17] = Downregulation of cyclin D1 level in human T24 cells assessed as remaining protein level at 2.5 uM after 48 hrs by Western blot analysis; format: functional, cell-based; conditions: T-24
[18] = Cellular uptake in human T24 cells at 5 uM after 4 hrs by FACS analysis in presence of dynasore; format: ADME, cell-based; conditions: t-24, 4 h
[19] = Cell cycle arrest in human T24 cells assessed as accumulation at G2 phase at 5 uM after 48 hrs by propidium iodide staining-based FACS analysis (reference value: 18.5%); format: functional; conditions: T-24
[20] = Binding affinity to 5' FAM/3' TAMRA labeled HRAS2 G-quadruplex DNA (unknown origin) by FRET analysis
T-24 [21] = test: Antitumor activity against human T24 cells xenografted in nude mouse assessed as tumor growth inhibition at 1.7 mg/kg administered intratumorally on day 1, 8, 15, 22 measured every 2 to 3 days up to 44 days; format: functional, organism-based
T-24 [22] = test: Inhibition of HRAS mRNA expression in human T24 cells assessed as remaining mRNA level at 5 uM after 6 hrs by RT-qPCR analysis relative to beta2-microglobulin mRNA expression; format: functional
[23] = Antitumor activity against human T24 cells xenografted in nude mouse assessed as mouse median survival day at 1.7 mg/kg administered intratumorally on day 1, 8, 15, 22 (reference value: 32 days); format: functional, T-24
[24] = Cell cycle arrest in human T24 cells assessed as accumulation at G2 phase at 5 uM measured at 72 hrs by propidium iodide staining-based FACS analysis (reference value: 17.7%); format: functional; conditions: T-24
[25] = Downregulation of p21RAS protein level in human T24 cells assessed as remaining protein level at 2.5 to 5 uM after 48 hrs by Western blot analysis relative to beta-actin protein expression; format: functional, cell-based; conditions: T-24
[26] = Binding affinity to 5' FAM/3' TAMRA labeled HRAS2 G-quadruplex DNA (unknown origin) assessed as change in melting temperature at 5 equiv of compound by FRET analysis in presence of 10 fold excess duplex DNA (reference value: 68.1 degreeC)
T-24 [27] = test: Induction of apoptosis in human T24 cells assessed as activation of caspase 3/7 at 2.5 to 5 uM measured after 18 to 24 hrs by Apo-ONE assay relative to control; format: functional
[28] = Cellular uptake in human T24 cells at 5 uM at 37 degC after 4 hrs by FACS analysis; format: ADME, cell-based; conditions: t-24, 4 h
[29] = Binding affinity to 5' FAM/3' TAMRA labeled HRAS2 G-quadruplex DNA (unknown origin) assessed as change in melting temperature at 5 equiv of compound (r = 5) by FRET analysis (reference value: 68.1 degreeC)
[30] = Antitumor activity against human T24 cells xenografted in nude mouse assessed as increase in mouse median survival day at 1.7 mg/kg administered intratumorally on day 1, 8, 15, 22 relative to control; format: functional, T-24
[31] = Cellular uptake in nucleus of human T24 cells at 5 uM after 4 hrs by confocal microscopic analysis; format: ADME, cell-based; conditions: t-24, 4 h
[32] = Binding affinity to 5' FAM/3' TAMRA labeled HRAS2 G-quadruplex DNA (unknown origin) assessed as change in melting temperature at 10 equiv of compound by FRET analysis (reference value: 67.2 degreeC)
T-24 [33] = test: Binding affinity to mutant HRAS Mut-B plasmid (unknown origin) transfected in human T24 cells at 100 to 200 nM pretreated with cells followed by transfection measured after 48 hrs by dual luciferase reporter gene assay; format: cell-based
T-24 [34] = test: Inhibition of HRAS mRNA expression in human T24 cells assessed as remaining mRNA level at 5 uM after 24 hrs by RT-qPCR analysis relative to beta2-microglobulin mRNA expression; format: functional
[35] = Cell cycle arrest in human T24 cells assessed as accumulation at G1 phase at 5 uM after 48 hrs by propidium iodide staining-based FACS analysis (reference value: 52.4%); format: functional; conditions: T-24
[36] = Binding affinity to 5' FAM/3' TAMRA labeled HRAS1 G-quadruplex DNA (unknown origin) assessed as change in melting temperature by FRET analysis
[37] = Downregulation of p21RAS protein level in human T24 cells assessed as remaining protein level at 5 uM after 48 hrs by Western blot analysis relative to beta-actin protein expression; format: functional, cell-based; conditions: T-24

SMILES	Drug uptake [1]	Activity (T-24 [3])	Activity (T-24 [4]) [%]	IC50 (HEK293) [nM]	Activity (T-24 [6])	IC50 [8] [nM]	Drug uptake [9]	Kd [10] [nM]	ΔTm [11] [°C]	Drug uptake [15]	fold change (FC) [16]	Kd [20] [nM]	Drug uptake [28]	Drug uptake [31]	ΔTm [36] [°C]	also measured
N=C(N)NCCCCNc1c2c(c(NCCCCNC(=N)N)c3sccc13)C(=O)c1ccccc1C2=O	Active	inactive	13	> 30000	inactive											Activity [2]: inactive; Activity [5]: Active; inhibition (T-24 [7]): inactive
N=C(CCl)NCCNc1c2c(c(NCCNC(=N)CCl)c3sccc13)C(=O)c1ccccc1C2=O	Active	80%	88	6400	Active	2700	Active	611	7	Not Active	2	317	Active	Active	9	Activity (T-24 [12]): inactive; Activity (T-24 [13]): 40%; Activity (T-24 [14]): inactive; Activity [17]: < 10%; Drug uptake [18]: Not Active; Activity [19]: 72.2%; TGI (T-24 [21]): Active; Activity (T-24 [22]): 35%; MSD [23]: 54 days; Activity [24]: 44.7%; Activity [25]: < 4%; Tm [26]: 75.6 °C; fold change (FC) (T-24 [27]): 15; Tm [29]: 75.6 °C; Activity [30]: 70%; Tm [32]: 78.5 °C; Activity (T-24 [33]): inactive; Activity (T-24 [34]): 34%; Activity [35]: 12.2%
N=C(CCl)NCCCNc1c2c(c(NCCNC(=N)CCl)c3ccsc13)C(=O)c1ccccc1C2=O	Active			10100		2900	Active	179	7	Not Active	2	221	Active	Active	9	
N=C(CCl)NCCCCNc1c2c(c(NCCCCNC(=N)CCl)c3sccc13)C(=O)c1ccccc1C2=O	Active			> 30000		11500	Active	231	7		2	215		Active	9	
N=C(CCl)NCCCNc1c2c(c(NCCCNC(=N)CCl)c3sccc13)C(=O)c1ccccc1C2=O	Active			19400		6800	Active	260	7		2	276		Active	9	
N=C(N)NCCNc1c2c(c(NCCNC(=N)N)c3sccc13)C(=O)c1ccccc1C2=O	Active	inactive	13	> 30000	inactive	4400										Activity [2]: inactive; Activity [5]: Active; Activity (T-24 [27]): inactive; inhibition (T-24 [7]): inactive
N=C(CCl)NCCCNc1c2c(c(NCCNC(=N)CCl)c3sccc13)C(=O)c1ccccc1C2=O	Active	80%	81	12600	Active	3000	Active	178	7	Not Active	2	168	Active	Active	9	Activity [37]: 40%; Activity (T-24 [14]): inactive; Activity [17]: < 10%; Drug uptake [18]: Not Active; Activity [19]: 66%; Activity (T-24 [22]): 45%; Activity [24]: 83%; Tm [26]: 75.8 °C; fold change (FC) (T-24 [27]): 15; Tm [29]: 75.8 °C; Activity (T-24 [34]): 24%; Activity [35]: 28.9%
